One may read the EC50 as the concentration at which the effect is half-maximal. Broadly, the CC50 is the concentration that lowers cell viability or growth by half. Usually IC50 stands for the point on the concentration scale where inhibition reaches its midpoint.

Series [1] can be described thus: Selectivity ratio of CC50 for HIV-2 ROD mock-infected human MT4 cells to EC50 for HIV-2 ROD infected in human MT4 cells. In kind it is ADME, cell-based. The following applies: read-out: Ratio CC50/EC50.
A short description of series [2]: Selectivity ratio of CC50 for HIV-1 3B mock-infected human MT4 cells to EC50 for HIV-1 3B infected in human MT4 cells. The class given is ADME, cell-based. The settings on record: read-out: Ratio CC50/EC50.
For series [3], the system named is Human immunodeficiency virus 2. Description: Antiviral activity against HIV-2 ROD infected in human MT4 cells assessed as inhibition of virus-induced cytopathicity by MTT assay. In kind it is functional, organism-based. The following applies: Human immunodeficiency virus 2, ISOLATE ROD. (In general: Damage to the host cells serves as the signal in cytopathic effect assays.)

Series [4] can be described thus: Cytotoxicity against HIV-2 ROD mock-infected human MT4 cells assessed as reduction in cell viability by MTT assay. The class given is cell-based. The following applies: HIV-2 ROD mock-infected MT4 cells. On the technique in general: Tetrazolium dyes change colour on reduction, which living cells bring about.
For series [5], the target named is Human immunodeficiency virus type 1 reverse transcriptase (Human immunodeficiency virus 1, UniProt Q72547). Description: Inhibition of purified recombinant HIV-1 reverse transcriptase assessed as inhibition of biotin-dUTP incorporation using poly(rC)-oligo(dG) as template primer.
Series [6] in a line: Cytotoxicity against HIV-1 3B mock-infected human MT4 cells assessed as reduction in cell viability by MTT assay. The class given is cell-based. The settings on record: HIV-1 3B mock-infected MT4 cells.
Series [7] concerns Human immunodeficiency virus 1. Put plainly: Antiviral activity against HIV-1 3B infected in human MT4 cells assessed as inhibition of virus-induced cytopathicity by MTT assay. The class given is functional, organism-based. The settings on record: Human immunodeficiency virus 1, 3B.

As for `O=C(CSc1nnccc1-c1cccc2ccccc12)Nc1ccccc1[N+](=O)[O-]`, the selectivity ratio in series [1] was below 1; in series [2] it was 2150. Besides, the values for the EC50 in series [3] and in series [7] were above 135 µM and 0.046 µM, respectively. Further, the figures for the CC50 in series [4] and in series [6] were 135 µM and 99.9 µM, respectively. Besides, the 50% inhibitory concentration (IC50) in series [5] was determined as 4.06 µM.

In the case of `O=C(CSc1nnccc1-c1cccc2ccccc12)c1ccc(Cl)cc1Cl`, the selectivity ratio in series [1] is below 1; in series [2] it was 10. The results for the 50% effective concentration (EC50) in series [3] and in series [7] were above 55 µM and 5.46 µM, respectively. Also, the CC50 in series [4] was found to be 55 µM; in series [6] it was 54.6 µM.

On to `O=C(CSc1nnccc1-c1cccc2ccccc12)N1CCCc2ccccc21`, for which the selectivity ratio in series [1] and in series [2] was below 1 throughout. Besides, the values for the EC50 in series [3] and in series [7] were above 35 µM and above 34.5 µM, respectively. For the same compound, the values for the CC50 in series [4] and in series [6] were 35 µM and 34.5 µM, respectively.

As for `CC(C)Nc1cccnc1N1CCN(C(=O)c2cc3cc(NS(C)(=O)=O)ccc3[nH]2)CC1` [DELAVIRDINE], the selectivity ratio in series [2] was above 1100. The CC50 in series [4] and in series [6] was above 36.2 µM in each case.

Turning to `Cc1ccc(NC(=O)CSc2nnccc2-c2cccc3ccccc23)c([N+](=O)[O-])c1`, the results for the selectivity ratio in series [1] and in series [2] were below 1 and 1440, respectively. Moreover, the EC50 was above 244 µM in series [3] and 0.14 µM in series [7]. The half-maximal cytotoxic concentration (CC50) was 244 µM in series [4] and 204 µM in series [6].

Consider `O=C1Nc2ccc(Cl)cc2[C@@](C#CC2CC2)(C(F)(F)F)O1` [EFAVIRENZ], for which, in series [2], the selectivity ratio is above 1190. For the same compound, the 50% cytotoxic concentration (CC50) in series [4] and in series [6] was above 6.34 µM throughout.

As to `O=C(CSc1nnccc1-c1cccc2ccccc12)Nc1ccccc1`, the selectivity ratio in series [1] was below 1; in series [2], 105. Also, the EC50 in series [3] was above 174 µM; in series [7] it was 1.93 µM. In addition, the CC50 turned out to be 174 µM in series [4] and 203 µM in series [6].

Regarding `O=C(CSc1nnccc1-c1cccc2ccccc12)Nc1ccccc1F`, the selectivity ratio in series [1] is below 1; in series [2] it was 799. Further, the EC50 is above 241 µM in series [3] and 0.26 µM in series [7]. The cytotoxic concentration (CC50) in series [4] is 241 µM; in series [6], 204 µM.

In the case of `Cc1ccnc2c1NC(=O)c1cccnc1N2C1CC1` [NEVIRAPINE], the CC50 in series [4] and in series [6] was above 15 µM throughout.

For `Cc1ccc(NC(=O)CSc2nnccc2-c2cccc3ccccc23)c(Br)c1`, the selectivity ratio in series [1] was below 1; in series [2] it was 929. In addition, the values for the half-maximal effective concentration (EC50) in series [3] and in series [7] were above 215 µM and 0.2 µM, respectively. The CC50 in series [4] stood at 215 µM; in series [6] it was 182 µM.

As to `O=C(CSc1nnccc1-c1cccc2ccccc12)Nc1ccccc1Cl`, the selectivity ratio is below 1 in series [1] and 177 in series [2]. For the same compound, the EC50 in series [3] is above 35 µM; in series [7], 0.19 µM. Also, the figures for the CC50 in series [4] and in series [6] were 35 µM and 34.2 µM, respectively.

As for `CC(=O)c1ccc(NC(=O)CSc2nnccc2-c2cccc3ccccc23)c(Br)c1`, the selectivity ratio is below 1 in series [1] and 370 in series [2]. Also, the 50% effective concentration (EC50) was above 48.5 µM in series [3] and 0.13 µM in series [7]. The CC50 in series [4] stood at 48.5 µM; in series [6], 46.3 µM.

For `Nc1ccn([C@H]2CC[C@@H](CO)O2)c(=O)n1` [ZALCITABINE], the selectivity ratio in series [1] was above 74; in series [2], above 93. Further, the EC50 in series [3] came to 1.28 µM. Besides, the CC50 in series [4] and in series [6] was above 94.7 µM each time.

Take `O=C(CSc1nnccc1-c1cccc2ccccc12)Nc1ccc(Cl)cc1Cl`: the selectivity ratio in series [1] is below 1; in series [2], above 684. Further, the EC50 in series [3] is above 232 µM; in series [7], 0.42 µM. Moreover, the CC50 is 232 µM in series [4] and above 284 µM in series [6].

With `O=C(CSc1nnccc1-c1cccc2ccccc12)N1CCc2ccccc2C1`, the selectivity ratio in series [1] is below 1; in series [2] it was 29. In addition, the concentration for a half-maximal effect (EC50) in series [3] was above 36.5 µM; in series [7] it was 1.15 µM. Further, the CC50 was found to be 36.5 µM in series [4] and 34 µM in series [6].

Turning to `Cc1cn([C@H]2C[C@H](N=[N+]=[N-])[C@@H](CO)O2)c(=O)[nH]c1=O` [ZIDOVUDINE], the values for the selectivity ratio in series [1] and in series [2] were 56900 and 12200, respectively. For the same compound, the concentration giving a half-maximal response (EC50) was 0.0045 µM in series [3] and 0.021 µM in series [7].

For the compound `CCOC(=O)c1ccc(NC(=O)CSc2nnccc2-c2cccc3ccccc23)c(Br)c1`, the figures for the selectivity ratio in series [1] and in series [2] were below 1 and 420, respectively. The values for the EC50 in series [3] and in series [7] were above 239 µM and 0.56 µM, respectively. Further, the CC50 in series [4] was above 239 µM; in series [6], 237 µM.

On to `O=C(CSc1nnccc1-c1cccc2ccccc12)Nc1ccccc1Br`, for which the selectivity ratio in series [1] is below 1; in series [2] it was 151. In addition, the values for the concentration for a half-maximal effect (EC50) in series [3] and in series [7] were above 31.3 µM and 0.21 µM, respectively. The 50% cytotoxic concentration (CC50) turned out to be 31.3 µM in series [4] and 31.5 µM in series [6].

Regarding `Cc1ccccc1NC(=O)CSc1nnccc1-c1cccc2ccccc12`, the results for the selectivity ratio in series [1] and in series [2] were below 1 and 130, respectively. The concentration for a half-maximal effect (EC50) in series [3] is above 150 µM; in series [7], 1.09 µM. The CC50 in series [4] was 150 µM; in series [6], 142 µM.

`COC(=O)c1ccc(NC(=O)CSc2nnccc2-c2cccc3ccccc23)c(Br)c1`: the selectivity ratio in series [1] is below 1; in series [2] it was 1110. Also, the results for the EC50 in series [3] and in series [7] were above 246 µM and 0.14 µM, respectively. Further, the cytotoxic concentration (CC50) in series [4] was above 246 µM; in series [6], 159 µM.

As to `O=C(CSc1nnccc1-c1cccc2ccccc12)Nc1cccnc1Cl`, the selectivity ratio in series [1] is below 1; in series [2], 573. Besides, the concentration giving a half-maximal response (EC50) in series [3] is above 164 µM; in series [7], 0.27 µM. For the same compound, the CC50 in series [4] was 164 µM; in series [6], 156 µM.

For the origin of these results see ChEMBL document CHEMBL3132824, “Discovery of novel pyridazinylthioacetamides as potent HIV-1 NNRTIs using a structure-based bioisosterism approach” (Medchemcomm, 2013).
